In article PMC10703812, “Understanding the molecular mechanisms of odorant binding and activation of the human OR52 family” (Nature Communications, 2023):
“And” between values parts separate entries of the source, which are not always exact repeats. Equal values may be shown once.

Legend:
[1] = tested on: OR52cs; assay: cAMP signaling assay (cAMP sensor) in Hana3A cells; format: cell-based, human; settings: single experiments
Method: For cAMP assay, CRE luciferase assay, and surface ELISA, the full-length OR52cs construct was cloned into the pcDNA3.1 vector. The Lucy signal sequence and FLAG peptide sequence were added to the N-terminus. Mutant constructs were generated by site-directed mutagenesis. For BRET assay, eYFP was added at the C-terminus of OR52cs with a GGGGS linker. Rluc was added to Gα for resonance partner (after L99 for Gαs, and I100 for Gαolf, respectively, with GGGGS linker back and forth). […]
(§1) Hana3A cells were seeded on 96-well white microplates and transfected with OR52cs or the corresponding mutants and cAMP sensor (Promega). The medium was exchanged with CO2-independent medium (Gibco) supplemented with 0.375 mg ml^−1 D-luciferin (Nanolight) 48 h after infection, and cells were incubated in the dark at 20 °C for 2 h. Basal luminescence was detected using a Tristar 2 LB 942 multimode reader (Berthold) until it reached a plateau. Subsequently, various concentrations of odorants and forskolin (Sigma-Aldrich) were added to each well, and luminescence was measured again. Data were analyzed and plotted using GraphPad Prism 9.4.1.

[2] = tested on: OR52cs R265A; assay: CRE luciferase assay in Hana3A cells, mutant; format: cell-based, human; settings: 100 µM carboxylic acid; Fig.S7a, single experiments
Method: (§2) For cAMP assay, CRE luciferase assay, and surface ELISA, the full-length OR52cs construct was cloned into the pcDNA3.1 vector. The Lucy signal sequence and FLAG peptide sequence were added to the N-terminus. Mutant constructs were generated by site-directed mutagenesis. For BRET assay, eYFP was added at the C-terminus of OR52cs with a GGGGS linker. Rluc was added to Gα for resonance partner (after L99 for Gαs, and I100 for Gαolf, respectively, with GGGGS linker back and forth).
48 h after infection, cells were treated with odorants and incubated at 37 °C for 4 h. […] All values were divided by the Renilla luciferase activity to normalize the effect of cell confluence. All data were analyzed using GraphPad Prism 9.4.1.

[3] = tested on: OR52cs; assay: CRE luciferase assay in Hana3A cells; format: cell-based, human; settings: for relative fold of CRE luciferase activity: Fig.S7b, single experiments
Method: as §2
Hana3A cells were seeded on 96-well white microplates (SPL) and transfected with plasmids encoding CRE-luciferase, OR52cs or R265^6.59A mutant, Renilla luciferase, RTP1S, and Ric8b at a […] ratio 24 h after seeding. 48 h after infection, cells were treated with odorants and incubated at 37 °C for 4 h. Luminescence was measured using a Tristar 2 LB 942 multimode reader (Berthold). All values were divided by the Renilla luciferase activity to normalize the effect of cell confluence. All data were analyzed using GraphPad Prism 9.4.1.

[4] = tested on: OR52cs V158F/V209M; assay: cAMP signaling assay, mutant; format: cell-based, human; settings: Fig.S8b source data, single experiments
Method: as §2, §1

[5] = tested on: OR52cs V158F; assay: cAMP signaling assay, mutant; format: cell-based, human; settings: Fig.S8b source data, single experiments
Method: as §2, §1

[6] = tested on: OR52L1; parameters: method as in earlier work; settings: cited from earlier work
[7] = odorant 9.18274e-6 M, Fig.1a source data
[8] = odorant 9.18274e-8 M, Fig.S8b source data
[9] = odorant 9.18274e-7 M, Fig.S8b source data
[10] = odorant 9.18274e-6 M, Fig.S8b source data
[11] = odorant 3.0303e-5 M, Fig.S8b source data
[12] = odorant 0.0001 M, Fig.S8b source data
[13] = odorant 0.001 M, Fig.S8b source data

SMILES	cAMP response [1, 7]	relative fold (luciferase activity over DMSO) [2]	cAMP response [1, 8]	cAMP response [1, 9]	cAMP response [1, 10]	cAMP response [1, 11]	cAMP response [1, 12]	cAMP response [1, 13]	cAMP response ([4]; odorant 9.18274e-8 M)	cAMP response ([4]; odorant 9.18274e-7 M)	cAMP response ([4]; odorant 9.18274e-6 M)	cAMP response ([4]; odorant 3.0303e-5 M)	cAMP response ([4]; odorant 0.0001 M)	cAMP response ([4]; odorant 0.001 M)	cAMP response ([5]; odorant 9.18274e-8 M)	cAMP response ([5]; odorant 9.18274e-7 M)	cAMP response ([5]; odorant 9.18274e-6 M)	cAMP response ([5]; odorant 3.0303e-5 M)	cAMP response ([5]; odorant 0.0001 M)	cAMP response ([5]; odorant 0.001 M)	also measured
CCCCCCCCC(=O)O [Nonanoate, nonanoate]	36.8538 and 30.3132 and 25.7666	1.195 fold and 0.996 fold and 1.289 fold and 1.267 fold	–	–	–	–	–	–	–	–	–	–	–	–	–	–	–	–	–	–	cAMP response ([1]; odorant 3.0303e-5 M, Fig.1a source data): 65.8721 and 78.3812 and 58.155; cAMP response ([1]; odorant 0.0001 M, Fig.1a source data): 84.5947 and 88.3315 and 72.5955
CCCCCCCCO [Octanol, octanol]	–	–	–	–	–	–	–	–	–	–	–	–	–	–	–	–	–	–	–	–	activation of OR52cs (in words) ([3]; Supplementary Fig. 7): failed to activate; relative fold of CRE luciferase activity ([3]; odorant 10 μM): 1.663 fold and 1.557 fold and 1.263 fold and 1.4999 fold; relative fold of CRE luciferase activity ([3]; odorant 50 μM): 1.747 fold and 1.809 fold and 1.706 fold and 1.694 fold; relative fold of CRE luciferase activity ([3]; odorant 100 μM): 1.917 fold and 1.93 fold and 1.901 fold and 2.061 fold; relative fold of CRE luciferase activity ([3]; odorant 250 μM): 1.931 fold and 2.053 fold and 2.136 fold and 2.342 fold; relative fold of CRE luciferase activity ([3]; odorant 500 μM): 1.887 fold and 2.082 fold and 2.24 fold and 2.823 fold
CCCCC(=O)O [Pentanoate, pentanoate]	–	–	-0.162% and 0.6359% and -0.04254%	0.07645% and 0.3953% and 0.2459%	0.2758% and 0.7357% and 0.01532%	0.2715% and 0.6901% and 0.4212%	0.1615% and 1.39% and 0.4292%	2.769% and 2.642% and 1.705%	-0.5993% and 0.7689% and 1.106%	-0.2116% and 0.634% and 0.6548%	0.981% and 2.2804% and 2.576%	3.113% and 5.861% and 4.955%	9.203% and 15.4507% and 12.8173%	39.0499% and 48.7069% and 47.2503%	0.9264% and 0.2953% and 1.001%	0.9435% and 0.3179% and 1.755%	1.032% and 0.4577% and 1.961%	1.125% and 0.847% and 2.468%	1.499% and 1.023% and 3.422%	5.439% and 4.505% and 7.762%	response of OR52L1 (in words) [6]: responsive
CCC(=O)O [Propionate, propionate]	–	–	-0.2092% and 0.1117% and 0.5205%	-0.1831% and 0.1609% and 0.123%	-0.2867% and 0.1185% and 0.09817%	0.2368% and 0.05491% and -0.002619%	-0.3215% and 0.04237% and 0.3227%	0.5115% and 1.283% and 1.204%	0.9618% and -0.01314% and -0.2398%	1.572% and -0.593% and -0.7182%	1.935% and -0.7307% and 0.6877%	2.83% and 0.05137% and 0.2753%	2.508% and 0.3655% and 0.1006%	6.973% and 2.2608% and 3.165%	0.2434% and 0.9095%	-0.2446% and -2.828%	0.996% and -2.758%	-1.498% and -2.916%	-0.9959% and -2.168%	2.021% and 1.439%	–
CCCCCCCCCCC(=O)O [Undecanoate, undecanoate]	17.2544 and 14.2907 and 24.4976	1.911 fold and 1.478 fold and 1.422 fold and 1.276 fold	–	–	–	–	–	–	–	–	–	–	–	–	–	–	–	–	–	–	–
